{
  "source": "paper PMC7156458",
  "about": "“Synthetic biology based construction of biological activity-related library of fungal decalin-containing diterpenoid pyrones” (Nature Communications, 2020)",
  "key": {"[1]": {"test": "cytotoxicity in Drosophila l(2)mbn cells", "assay_type": "cell-based", "conditions": "Drosophila, l(2)mbn cells (larval blood cell-derived)", "procedure": "(§1) We screened the DDPs on the Drosophila assay system for cytotoxicity, inhibitory activity of innate immune signalling and insecticidal activity. The cytotoxicity of the DDPs was evaluated using two cell lines, embryonic macrophage-derived DL1 cells[58]–[60] and larval blood cell-derived l(2)mbn cells, and their IC50 values are listed in Supplementary Table 23."}, "[2]": {"test_system": "l(2)mbn cells", "test": "cytotoxicity in Drosophila l(2)mbn cells", "assay_type": "cell-based", "conditions": "for Luminescence Raw1: replicate 1; for Luminescence Raw2: replicate 2; for IC50: Drosophila melanogaster, cytotoxicity", "procedure": "as §1"}, "[3]": {"test_system": "MCF-7", "test": "cells", "set-up": "species or system JFCR39 human cancer cell lines; JFCR39 panel growth inhibition, sulforhodamine B total protein after 48 h", "conditions": "Homo sapiens, MCF7, 48 h", "method_in_brief": "(§2)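 Growth inhibition in JFCR39 human cancer lines was quantified by the SRB total-protein method following 48 h compound treatment. GI50 came from duplicate runs.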"}, "[4]": {"test_system": "LOX-IMVI", "test": "cells", "set-up": "species or system JFCR39 human cancer cell lines; JFCR39 panel growth inhibition, sulforhodamine B total protein after 48 h", "conditions": "Homo sapiens, LOX IMVI, 48 h", "method_in_brief": "as §2"}, "[5]": {"test_system": "BSY-1", "test": "cells", "set-up": "species or system JFCR39 human cancer cell lines; JFCR39 panel growth inhibition, sulforhodamine B total protein after 48 h", "conditions": "BSY-1, 48 h", "method_in_brief": "as §2"}, "[6]": {"test_system": "ACHN", "test": "cells", "set-up": "species or system JFCR39 human cancer cell lines; JFCR39 panel growth inhibition, sulforhodamine B total protein after 48 h", "conditions": "Homo sapiens, ACHN, 48 h", "method_in_brief": "as §2"}, "[7]": {"test_system": "NCI-H226", "test": "cells", "set-up": "species or system JFCR39 human cancer cell lines; JFCR39 panel growth inhibition, sulforhodamine B total protein after 48 h", "conditions": "Homo sapiens, NCI-H226, 48 h", "method_in_brief": "as §2"}, "[8]": {"test_system": "MKN-B", "test": "cells", "set-up": "species or system JFCR39 human cancer cell lines; JFCR39 panel growth inhibition, sulforhodamine B total protein after 48 h", "conditions": "48 h", "method_in_brief": "as §2"}, "[9]": {"test_system": "NCI-H460", "test": "cells", "set-up": "species or system JFCR39 human cancer cell lines; JFCR39 panel growth inhibition, sulforhodamine B total protein after 48 h", "conditions": "Homo sapiens, NCI-H460, 48 h", "method_in_brief": "as §2"}, "[10]": {"test_system": "KM-12", "test": "cells", "set-up": "species or system JFCR39 human cancer cell lines; JFCR39 panel growth inhibition, sulforhodamine B total protein after 48 h", "conditions": "Homo sapiens, KM12, 48 h", "method_in_brief": "as §2"}, "[11]": {"test_system": "A549", "test": "cells", "set-up": "species or system JFCR39 human cancer cell lines; JFCR39 panel growth inhibition, sulforhodamine B total protein after 48 h", "conditions": "Homo sapiens, A549, 48 h", "method_in_brief": "as §2"}, "[12]": {"test": "cytotoxicity in Drosophila DL1 cells", "assay_type": "cell-based", "conditions": "Drosophila, DL1 cells (embryonic macrophage-derived), DL1 cells", "procedure": "as §1"}, "[13]": {"test_system": "DL1 cells", "test": "cytotoxicity in Drosophila DL1 cells", "assay_type": "cell-based", "conditions": "DL1 cells; for IC50: Drosophila melanogaster, cytotoxicity", "procedure": "as §1"}, "[14]": {"test_system": "human immunodeficiency virus-1 (HIV-1)", "test": "anti-HIV MAGI assay", "assay_type": "cell-based", "conditions": "Human immunodeficiency virus 1, MAGI, anti-HIV", "from_the_text": "We examined the inhibitory activities of DDPs against various species of bacteria (both gram-negative and gram-positive bacteria), fungi and viruses. […] In contrast, preliminary screening of the DDPs for anti-viral agents with hepatitis B virus (HBV), measles virus (MV), Epstein-Barr virus (EBV), herpes simplex virus (HSV) and human immunodeficiency virus-1 (HIV-1) indicated their selective inhibition of HIV."}, "[15]": {"conditions": "replicate 1, relative to DMSO 1%, read-out: % viability, viability 1"}, "[16]": {"conditions": "replicate 2, relative to DMSO 1%, read-out: % viability, viability 2"}, "[17]": {"conditions": "average of two replicates, read-out: IC50 Average"}, "[18]": {"conditions": "replicate 1, read-out: IC50 (1)"}, "[19]": {"conditions": "replicate 2, read-out: IC50 (2)"}},
  "note": "Where two headings read alike, the source gives them in different places.",
  "data": [
    {"molecule": "C=C1CCC2C(C)(CCC=C(C)C)C(O)CCC2(C)C1Cc1c(OC)oc(C)c(C(=O)OC)c1=O", "note": "(stereo not shown) [Compound 14]", "values": [
      {"measurement": "viability at 0.04 µM", "setting": "[1]; [15]", "value": 137, "unit": "%"},
      {"measurement": "viability at 0.04 µM", "setting": "[1]; [16]", "value": 114, "unit": "%"},
      {"measurement": "viability at 0.2 µM", "setting": "[1]; [15]", "value": 136, "unit": "%"},
      {"measurement": "viability at 0.2 µM", "setting": "[1]; [16]", "value": 147, "unit": "%"},
      {"measurement": "viability at 1 µM", "setting": "[1]; [15]", "value": 131, "unit": "%"},
      {"measurement": "viability at 1 µM", "setting": "[1]; [16]", "value": 146, "unit": "%"},
      {"measurement": "viability at 4 µM", "setting": "[1]; [15]", "value": 18.5, "unit": "%"},
      {"measurement": "viability at 4 µM", "setting": "[1]; [16]", "value": 16, "unit": "%"},
      {"measurement": "viability at 10 µM", "setting": "[1]; [15]", "value": 10.1, "unit": "%"},
      {"measurement": "viability at 10 µM", "setting": "[1]; [16]", "value": 9.05, "unit": "%"},
      {"measurement": "viability at 20 µM", "setting": "[1]; [15]", "value": 7.49, "unit": "%"},
      {"measurement": "viability at 20 µM", "setting": "[1]; [16]", "value": 6.87, "unit": "%"},
      {"measurement": "Luminescence Raw1", "setting": "[2]; 0.04 µM", "value": 3506221},
      {"measurement": "Luminescence Raw2", "setting": "[2]; 0.04 µM", "value": 2917163},
      {"measurement": "Luminescence Raw1", "setting": "[2]; 0.2 µM", "value": 3483495},
      {"measurement": "Luminescence Raw2", "setting": "[2]; 0.2 µM", "value": 3765235},
      {"measurement": "Luminescence Raw1", "setting": "[2]; 1 µM", "value": 3358321},
      {"measurement": "Luminescence Raw2", "setting": "[2]; 1 µM", "value": 3748640},
      {"measurement": "Luminescence Raw1", "setting": "[2]; 4 µM", "value": 473811},
      {"measurement": "Luminescence Raw2", "setting": "[2]; 4 µM", "value": 410710},
      {"measurement": "Luminescence Raw1", "setting": "[2]; 10 µM", "value": 260351},
      {"measurement": "Luminescence Raw2", "setting": "[2]; 10 µM", "value": 232227},
      {"measurement": "Luminescence Raw1", "setting": "[2]; 20 µM", "value": 192204},
      {"measurement": "Luminescence Raw2", "setting": "[2]; 20 µM", "value": 176340},
      {"measurement": "IC50", "setting": "[2]; [17]", "value": 3.74, "unit": "µM"},
      {"measurement": "IC50", "setting": "[2]; average±SEM, read-out: IC50", "value": "3.74 ± 0.14", "unit": "µM"},
      {"measurement": "IC50", "setting": "[2]; [18]", "value": 3.6, "unit": "µM"},
      {"measurement": "IC50", "setting": "[2]; [19]", "value": 3.88, "unit": "µM"},
      {"measurement": "GI50", "setting": "[3]", "value": 2.4, "unit": "µM"},
      {"measurement": "GI50", "setting": "[4]", "value": 10.8, "unit": "µM"},
      {"measurement": "GI50", "setting": "[5]", "value": 10.2, "unit": "µM"},
      {"measurement": "GI50", "setting": "[6]", "value": 10.9, "unit": "µM"},
      {"measurement": "GI50", "setting": "[7]", "value": 11.7, "unit": "µM"},
      {"measurement": "GI50", "setting": "[8]", "value": 2.01, "unit": "µM"},
      {"measurement": "GI50", "setting": "[9]", "value": 0.0735, "unit": "µM"},
      {"measurement": "GI50", "setting": "[10]", "value": 14.1, "unit": "µM"},
      {"measurement": "GI50", "setting": "[11]", "value": 11, "unit": "µM"},
      {"measurement": "viability at 0.04 µM", "setting": "[12]; [15]", "value": 109, "unit": "%"},
      {"measurement": "viability at 0.04 µM", "setting": "[12]; [16]", "value": 115, "unit": "%"},
      {"measurement": "viability at 0.2 µM", "setting": "[12]; [15]", "value": 94.8, "unit": "%"},
      {"measurement": "viability at 0.2 µM", "setting": "[12]; [16]", "value": 82.2, "unit": "%"},
      {"measurement": "viability at 1 µM", "setting": "[12]; [15]", "value": 10.1, "unit": "%"},
      {"measurement": "viability at 1 µM", "setting": "[12]; [16]", "value": 8.02, "unit": "%"},
      {"measurement": "viability at 4 µM", "setting": "[12]; [15]", "value": 5.72, "unit": "%"},
      {"measurement": "viability at 4 µM", "setting": "[12]; [16]", "value": 6.14, "unit": "%"},
      {"measurement": "viability at 10 µM", "setting": "[12]; [15]", "value": 6.46, "unit": "%"},
      {"measurement": "viability at 10 µM", "setting": "[12]; [16]", "value": 5.9, "unit": "%"},
      {"measurement": "viability at 20 µM", "setting": "[12]; [15]", "value": 5.02, "unit": "%"},
      {"measurement": "viability at 20 µM", "setting": "[12]; [16]", "value": 4.22, "unit": "%"},
      {"measurement": "Luminescence Raw1", "setting": "[13]; 0.04 µM, replicate 1", "value": 2252387},
      {"measurement": "Luminescence Raw2", "setting": "[13]; 0.04 µM, replicate 2", "value": 2365278},
      {"measurement": "Luminescence Raw1", "setting": "[13]; 0.2 µM, replicate 1", "value": 1952676},
      {"measurement": "Luminescence Raw2", "setting": "[13]; 0.2 µM, replicate 2", "value": 1693730},
      {"measurement": "Luminescence Raw1", "setting": "[13]; 1 µM, replicate 1", "value": 208403},
      {"measurement": "Luminescence Raw2", "setting": "[13]; 1 µM, replicate 2", "value": 165136},
      {"measurement": "Luminescence Raw1", "setting": "[13]; 4 µM, replicate 1", "value": 117902},
      {"measurement": "Luminescence Raw2", "setting": "[13]; 4 µM, replicate 2", "value": 126556},
      {"measurement": "Luminescence Raw1", "setting": "[13]; 10 µM, replicate 1", "value": 133046},
      {"measurement": "Luminescence Raw2", "setting": "[13]; 10 µM, replicate 2", "value": 121508},
      {"measurement": "Luminescence Raw1", "setting": "[13]; 20 µM, replicate 1", "value": 103480},
      {"measurement": "Luminescence Raw2", "setting": "[13]; 20 µM, replicate 2", "value": 86894},
      {"measurement": "IC50", "setting": "[13]; [17]", "value": 0.438, "unit": "µM"},
      {"measurement": "IC50", "setting": "[13]; average±SEM, read-out: IC50", "value": "0.44 ± 0.06", "unit": "µM"},
      {"measurement": "IC50", "setting": "[13]; [18]", "value": 0.502, "unit": "µM"},
      {"measurement": "IC50", "setting": "[13]; [19]", "value": 0.374, "unit": "µM"},
      {"measurement": "EC50", "setting": "[14]; MAGI assay, read-out: EC50", "value": "< 0.2", "unit": "µM"},
      {"measurement": "EC50", "setting": "[14]; average of numeric determinations, read-out: Avg. EC50", "value": 0.0457, "unit": "µM"}
    ]}
  ]
}
